Data taken from ChEMBL document CHEMBL1127588, “A structure-activity relationship study of benzylic modifications of 4-[1-(1-naphthyl)ethyl]-1H-imidazoles on alpha 1- and alpha 2-adrenergic receptors” (J Med Chem, 1994).

How the values were obtained:
[1] = Ratio between IC50 values of alpha 1 and alpha 2 receptors
[2] = biological target: T1, Adrenergic receptor alpha-2 (Rattus norvegicus, UniProt P22086+P19328+P22909); test: Tested for its binding affinity against alpha-2 receptor in rat brain membrane; assay type: cell membranes
T1 sequence (P22086 whole entry): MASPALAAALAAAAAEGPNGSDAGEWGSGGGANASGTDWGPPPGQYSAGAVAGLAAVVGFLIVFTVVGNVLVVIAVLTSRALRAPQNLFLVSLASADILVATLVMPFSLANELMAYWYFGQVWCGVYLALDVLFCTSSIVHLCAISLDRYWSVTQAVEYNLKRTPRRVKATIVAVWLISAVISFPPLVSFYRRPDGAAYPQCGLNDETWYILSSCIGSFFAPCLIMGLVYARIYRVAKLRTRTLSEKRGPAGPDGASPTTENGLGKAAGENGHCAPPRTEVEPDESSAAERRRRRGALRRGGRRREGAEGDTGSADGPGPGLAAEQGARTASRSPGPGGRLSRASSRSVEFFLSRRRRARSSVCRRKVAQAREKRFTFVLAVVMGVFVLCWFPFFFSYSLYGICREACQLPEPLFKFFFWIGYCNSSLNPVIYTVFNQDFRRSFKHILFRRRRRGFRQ
T1 sequence (P19328 whole entry): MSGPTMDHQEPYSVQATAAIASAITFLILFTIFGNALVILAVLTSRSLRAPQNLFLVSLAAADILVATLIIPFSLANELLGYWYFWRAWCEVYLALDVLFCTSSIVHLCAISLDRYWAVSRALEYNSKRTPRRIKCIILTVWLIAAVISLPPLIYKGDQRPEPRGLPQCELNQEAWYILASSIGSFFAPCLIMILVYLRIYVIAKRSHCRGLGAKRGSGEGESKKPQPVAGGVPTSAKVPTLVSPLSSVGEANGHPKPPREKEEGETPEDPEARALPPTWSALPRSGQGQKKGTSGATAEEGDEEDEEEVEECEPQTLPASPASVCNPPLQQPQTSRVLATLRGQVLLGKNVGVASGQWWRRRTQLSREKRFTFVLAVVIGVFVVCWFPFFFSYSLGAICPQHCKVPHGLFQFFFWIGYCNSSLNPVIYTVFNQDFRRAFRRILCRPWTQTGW
T1 sequence (P22909 whole entry): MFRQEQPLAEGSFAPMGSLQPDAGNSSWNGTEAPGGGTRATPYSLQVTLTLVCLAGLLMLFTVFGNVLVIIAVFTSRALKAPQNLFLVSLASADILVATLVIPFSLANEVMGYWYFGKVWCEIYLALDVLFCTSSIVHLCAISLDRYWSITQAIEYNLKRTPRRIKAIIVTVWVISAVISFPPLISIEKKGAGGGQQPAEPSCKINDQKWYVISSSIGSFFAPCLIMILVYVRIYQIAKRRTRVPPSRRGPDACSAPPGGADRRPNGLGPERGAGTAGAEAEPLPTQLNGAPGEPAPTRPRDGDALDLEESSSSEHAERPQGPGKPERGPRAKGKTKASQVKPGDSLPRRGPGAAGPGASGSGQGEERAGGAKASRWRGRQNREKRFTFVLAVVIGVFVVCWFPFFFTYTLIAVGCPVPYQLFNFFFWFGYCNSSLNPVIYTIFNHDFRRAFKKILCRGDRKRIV

[3] = biological target: T2, Adrenergic receptor alpha-1 (Rattus norvegicus, UniProt P15823+P23944+P43140); test: Tested for its binding affinity against alpha-1 receptor in rat brain membrane; assay type: cell membranes
T2 sequence (P15823 whole entry): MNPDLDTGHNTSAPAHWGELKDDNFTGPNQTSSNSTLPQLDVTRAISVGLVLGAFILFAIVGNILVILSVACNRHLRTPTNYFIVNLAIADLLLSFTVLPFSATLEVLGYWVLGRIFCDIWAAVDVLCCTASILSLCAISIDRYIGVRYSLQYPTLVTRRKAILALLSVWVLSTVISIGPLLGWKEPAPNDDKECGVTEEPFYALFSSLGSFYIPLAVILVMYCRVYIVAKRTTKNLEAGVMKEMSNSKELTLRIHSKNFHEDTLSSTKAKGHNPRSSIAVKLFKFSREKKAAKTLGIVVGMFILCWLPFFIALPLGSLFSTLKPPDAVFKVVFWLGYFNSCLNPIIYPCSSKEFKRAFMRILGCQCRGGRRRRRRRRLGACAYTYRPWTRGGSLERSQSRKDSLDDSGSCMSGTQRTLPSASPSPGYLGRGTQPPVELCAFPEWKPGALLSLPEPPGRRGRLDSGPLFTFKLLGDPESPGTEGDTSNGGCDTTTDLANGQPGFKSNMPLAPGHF
T2 sequence (P23944 whole entry): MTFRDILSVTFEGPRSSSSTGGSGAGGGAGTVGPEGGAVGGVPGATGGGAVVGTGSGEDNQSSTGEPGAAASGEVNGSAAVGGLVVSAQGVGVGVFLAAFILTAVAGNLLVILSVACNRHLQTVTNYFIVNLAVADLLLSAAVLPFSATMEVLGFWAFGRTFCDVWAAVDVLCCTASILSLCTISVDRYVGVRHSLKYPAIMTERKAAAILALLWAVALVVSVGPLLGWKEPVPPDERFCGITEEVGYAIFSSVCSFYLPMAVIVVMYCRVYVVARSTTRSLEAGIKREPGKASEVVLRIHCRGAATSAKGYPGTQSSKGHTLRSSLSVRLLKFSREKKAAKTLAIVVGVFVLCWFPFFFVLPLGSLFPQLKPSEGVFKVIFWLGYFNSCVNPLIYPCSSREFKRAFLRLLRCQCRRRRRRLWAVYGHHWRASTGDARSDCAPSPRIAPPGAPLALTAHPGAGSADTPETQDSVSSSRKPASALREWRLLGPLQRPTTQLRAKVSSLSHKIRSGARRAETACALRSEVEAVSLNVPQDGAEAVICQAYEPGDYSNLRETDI
T2 sequence (P43140 whole entry): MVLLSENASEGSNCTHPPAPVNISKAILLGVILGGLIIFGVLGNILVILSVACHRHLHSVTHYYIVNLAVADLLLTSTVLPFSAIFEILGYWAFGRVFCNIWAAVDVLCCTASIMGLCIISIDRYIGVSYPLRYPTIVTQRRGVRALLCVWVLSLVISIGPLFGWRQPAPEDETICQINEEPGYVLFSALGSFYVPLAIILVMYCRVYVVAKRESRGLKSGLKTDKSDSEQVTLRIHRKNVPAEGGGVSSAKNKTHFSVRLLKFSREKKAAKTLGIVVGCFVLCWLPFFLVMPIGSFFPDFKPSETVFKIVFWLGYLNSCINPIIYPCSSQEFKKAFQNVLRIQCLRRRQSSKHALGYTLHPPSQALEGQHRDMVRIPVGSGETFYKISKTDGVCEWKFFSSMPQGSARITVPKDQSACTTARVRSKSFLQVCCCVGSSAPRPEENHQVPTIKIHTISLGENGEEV

[4] = biological target: Adrenergic receptor alpha (Rattus norvegicus) (UniProt P15823+P23944+P43140+P22086+P19328+P22909); test: Ratio between EC50 values of alpha 1 and alpha 2 receptors; assay type: protein assay

Structure (SMILES): O=C(O)C(=O)O.O=C(c1c[nH]cn1)c1cccc2ccccc12
- Ratio [1]: 0.5
- Ki [2]: 31.754 µM
- Ki [3]: 15.902 µM

Structure (SMILES): CC(c1c[nH]cn1)c1cccc2ccccc12 (stereo in doubt; 2)
- Ratio [1]: 18.2
- Ratio [4]: 643

Structure (SMILES): CC(c1c[nH]cn1)c1cccc2ccccc12 (stereo in doubt; S-(-)-2)
- Ratio [1]: 22.3

Structure (SMILES): CC(c1c[nH]cn1)c1cccc2ccccc12 (stereo in doubt; S-(+)-2)
- Ratio [1]: 41.9
- Ratio [4]: 752

Structure (SMILES): Cl.OC(c1c[nH]cn1)(c1cccc2ccccc12)C(F)(F)F (stereo unspecified)
- Ratio [1]: > 2
- Ki [2]: > 24.539 µM
- Ki [3]: > 50 µM
